Each structure is given as a SMILES string.

This assay addresses T1, Human CCR3 (Homo sapiens, UniProt P51677).
T1 construct: The cloned CCR3 cDNA was constructed with pcDNA3 vector and transfected into a IC562 cell line; expressed in transfected cells
T1 sequence (P51677 1-355): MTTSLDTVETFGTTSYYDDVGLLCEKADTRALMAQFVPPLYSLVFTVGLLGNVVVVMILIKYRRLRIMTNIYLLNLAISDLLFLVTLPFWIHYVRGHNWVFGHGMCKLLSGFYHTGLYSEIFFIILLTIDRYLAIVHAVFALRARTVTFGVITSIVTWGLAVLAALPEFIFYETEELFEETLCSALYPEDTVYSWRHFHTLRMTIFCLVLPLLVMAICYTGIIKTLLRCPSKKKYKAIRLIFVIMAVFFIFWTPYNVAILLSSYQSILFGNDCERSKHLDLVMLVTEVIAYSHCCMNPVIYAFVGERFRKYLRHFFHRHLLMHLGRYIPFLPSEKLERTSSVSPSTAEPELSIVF
In words: Receptor binding assay (RBA), [125I]-eotaxin. The note with it: human CCR3-transformed K562 cells, 0.1 nM [125I]-eotaxin; compounds of about 40 to 90% purity; read-out: Activity grade RBA (IC50 class). The essentials:
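Butyrate-pretreated (5 mM, 20-24 h) CCR3-transfected K562 cells incubated 1 h at room temperature with compound and 0.1 nM final [125I]-eotaxin in HEPES pH 7.6 buffer; bound radioactivity counted after filtration. Non-specific binding with 500 nM unlabeled eotaxin; IC50 from inhibition curve.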
Usually IC50 stands for the concentration that inhibits the measured activity by half. As for `O=[N+]([O-])c1ccc(Sc2cc(Cl)cc(Cl)c2)c(S(=O)(=O)N2CCC(N3CCCCC3)CC2)c1` [Example 2-3], the IC50 is below 1 µM. As for `Cl.N[C@@H]1CCN(S(=O)(=O)c2cc([N+](=O)[O-])ccc2Sc2cc(Cl)cc(Cl)c2)C1` [Example 2-11], the IC50 was below 1 µM.

Turning to `N[C@H]1CCN(S(=O)(=O)c2cc([N+](=O)[O-])ccc2Sc2cc(Cl)cc(Cl)c2)C1` [Example 2-12], the concentration for half-maximal inhibition (IC50) was below 1 µM. For `CC1CCCCN1CCCNS(=O)(=O)c1cc([N+](=O)[O-])ccc1Sc1cc(Cl)cc(Cl)c1` (stereo not shown) [Example 2-13] the value was below 1 µM. For `O=[N+]([O-])c1ccc(Sc2cc(Cl)cc(Cl)c2)c(S(=O)(=O)N2CCC(N3CCCC3)CC2)c1` [Example 2-22] the value was below 1 µM. In the case of `CN(C)CCN(C)S(=O)(=O)c1cc([N+](=O)[O-])ccc1Sc1cc(Cl)cc(Cl)c1` [Example 2-23] it was below 1 µM; in that of `O=[N+]([O-])c1ccc(Sc2cc(Cl)cc(Cl)c2)c(S(=O)(=O)NCCN2CCCCC2)c1` [Example 2-24], below 1 µM. On to `O=[N+]([O-])c1ccc(Nc2cc(Cl)cc(Cl)c2)c(S(=O)(=O)N2CCNCC2)c1` [Example 3-2], for which the IC50 is below 1 µM. For `Cc1ccccc1Nc1ccc([N+](=O)[O-])cc1S(=O)(=O)N1CCNCC1` [Example 3-3] the value was 1 to 10 µM; for `Cc1cccc(Nc2ccc([N+](=O)[O-])cc2S(=O)(=O)N2CCNCC2)c1` [Example 3-4], 1 to 10 µM.

On to `Cc1ccc(Nc2ccc([N+](=O)[O-])cc2S(=O)(=O)N2CCNCC2)cc1` [Example 3-5], for which the concentration for half-maximal inhibition (IC50) was above 10 µM. For `O=[N+]([O-])c1ccc(Nc2ccccc2Cl)c(S(=O)(=O)N2CCNCC2)c1` [Example 3-6] the value was above 10 µM; for `Cc1cc(C)cc(Oc2ccc([N+](=O)[O-])cc2S(=O)(=O)NCCN2CCCCC2)c1` [Example 4-2], below 1 µM; for `Cc1cc(C)cc(Oc2ccc([N+](=O)[O-])cc2S(=O)(=O)NCCN2CCOCC2)c1` [Example 4-3], 1 to 10 µM. For `Cc1cc(C)cc(Oc2ccc([N+](=O)[O-])cc2S(=O)(=O)N2CCN(C)CC2)c1` [Example 4-4] the value was below 1 µM. For `CCN1CCN(S(=O)(=O)c2cc([N+](=O)[O-])ccc2Oc2cc(C)cc(C)c2)CC1` [Example 4-5] the value was below 1 µM; for `Cc1cc(C)cc(Oc2ccc([N+](=O)[O-])cc2S(=O)(=O)N2CCN(C3CCCCC3)CC2)c1` [Example 4-6], below 1 µM.

On to `Cc1cc(C)cc(Oc2ccc([N+](=O)[O-])cc2S(=O)(=O)N2CCN(c3ccccc3)CC2)c1` [Example 4-7], for which the IC50 is above 10 µM. In the case of `Cc1ccc(N2CCN(S(=O)(=O)c3cc([N+](=O)[O-])ccc3Oc3cc(C)cc(C)c3)CC2)cc1` [Example 4-8] it was above 10 µM; in that of `CCN1CCC(N(CC)S(=O)(=O)c2cc([N+](=O)[O-])ccc2Oc2cc(C)cc(C)c2)C1` (stereo not shown) [Example 4-12], below 1 µM. For `Cc1cc(C)cc(Oc2ccc([N+](=O)[O-])cc2S(=O)(=O)N2CC[C@@H](N(C)C)C2)c1` [Example 4-13] the value was below 1 µM; for `Cc1cc(C)cc(Oc2ccc([N+](=O)[O-])cc2S(=O)(=O)N(C)CCN(C)C)c1` [Example 4-14], below 1 µM. For `Cc1cc(C)cc(Oc2ccc([N+](=O)[O-])cc2S(=O)(=O)N2CCN(C(C)C)CC2)c1` [Example 4-15] the value was below 1 µM. As for `CCC(C)N1CCN(S(=O)(=O)c2cc([N+](=O)[O-])ccc2Oc2cc(C)cc(C)c2)CC1` (stereo not shown) [Example 4-16], the IC50 is below 1 µM. In the case of `CCCC(C)N1CCN(S(=O)(=O)c2cc([N+](=O)[O-])ccc2Oc2cc(C)cc(C)c2)CC1` (stereo not shown) [Example 4-17] it was below 1 µM; in that of `CCC(CC)N1CCN(S(=O)(=O)c2cc([N+](=O)[O-])ccc2Oc2cc(C)cc(C)c2)CC1` [Example 4-18], below 1 µM; in that of `Cc1cc(C)cc(Oc2ccc([N+](=O)[O-])cc2S(=O)(=O)N2CCN(C3CCCC3)CC2)c1` [Example 4-19], below 1 µM.

For `CN(C)CCN(C)S(=O)(=O)c1cc([N+](=O)[O-])ccc1Oc1cc(Cl)cc(Cl)c1` [Example 4-20], the half-maximal inhibitory concentration (IC50) was below 1 µM. For `CCN(CC)C1CCN(S(=O)(=O)c2cc([N+](=O)[O-])ccc2Oc2cc(Cl)cc(Cl)c2)C1` (stereo not shown) [Example 4-21] the value was below 1 µM; for `O=[N+]([O-])c1ccc(Oc2cc(Cl)cc(Cl)c2)c(S(=O)(=O)N2CCC[C@H]2CN2CCCC2)c1` [Example 4-22], below 1 µM; for `CN1CCC(N(C)S(=O)(=O)c2cc([N+](=O)[O-])ccc2Oc2cc(Cl)cc(Cl)c2)C1` (stereo not shown) [Example 4-23], below 1 µM. Regarding `Cc1cc(C)cc(Oc2ccc([N+](=O)[O-])cc2S(=O)(=O)N2CCC(N(C)C)CC2)c1.Cl` [Example 4-24], the IC50 was below 1 µM. For `Cc1cc(C)cc(Oc2ccc([N+](=O)[O-])cc2S(=O)(=O)N2CCN(CC3CCCO3)CC2)c1` (stereo not shown) [Example 4-26] the value was below 1 µM; for `O=[N+]([O-])c1ccc(Oc2cc(Cl)cc(Cl)c2)c(S(=O)(=O)N2CCN(CC3CCCO3)CC2)c1` (stereo not shown) [Example 4-27], below 1 µM.

On to `O=[N+]([O-])c1ccc(Oc2cc(Cl)cc(Cl)c2)c(S(=O)(=O)N2CCC(N3CCCCC3)CC2)c1` [Example 4-29], for which the IC50 was below 1 µM.

For the compound `Cc1cc(C)cc(Oc2ccc([N+](=O)[O-])cc2S(=O)(=O)N2CCN(CCC(F)(F)F)CC2)c1` [Example 4-33], the IC50 was below 1 µM.

`O=[N+]([O-])c1ccc(Oc2cc(Cl)cc(Cl)c2)c(S(=O)(=O)N2CCN(CCC(F)(F)F)CC2)c1` [Example 4-34]: the IC50 is below 1 µM. For `COCCCN1CCN(S(=O)(=O)c2cc([N+](=O)[O-])ccc2Oc2cc(Cl)cc(Cl)c2)CC1` [Example 4-36] the value was below 1 µM; for `O=[N+]([O-])c1ccc(Oc2cc(Cl)cc(Cl)c2)c(S(=O)(=O)N2CCC(N3CCCC3)C2)c1` (stereo not shown) [Example 4-38], below 1 µM; for `Cc1cc(C)cc(Oc2ccc(N)cc2S(=O)(=O)N2CCNCC2)c1.O=C(O)C(F)(F)F` [Example 5-3], above 10 µM. For `CCN1CCN(S(=O)(=O)c2cc(Cl)ccc2Oc2cc(C)cc(C)c2)CC1` [Example 5-4] the value was below 1 µM; for `CCN1CCN(S(=O)(=O)c2cc(I)ccc2Oc2cc(C)cc(C)c2)CC1` [Example 5-5], below 1 µM. For `Cc1cc(C)cc(Oc2ccc(I)cc2S(=O)(=O)N2CCNCC2)c1.Cl` [Example 5-6] the value was below 1 µM. Consider `Cc1cc(C)cc(Oc2cc(C)c(N)cc2S(=O)(=O)N2CCNCC2)c1.Cl.Cl` [Example 5-7], for which the IC50 is above 10 µM. Take `Cc1cc(C)cc(Oc2ccc(F)cc2S(=O)(=O)N2CCNCC2)c1` [Example 6-3]: the IC50 is below 1 µM.

For the compound `CC(=O)Nc1ccc(Oc2cc(C)cc(C)c2)c(S(=O)(=O)N2CCNCC2)c1` [Example 7-2], the IC50 is above 10 µM. On to `Cc1cc(C)cc(Oc2ccc(NC(=O)C(C)(C)C)cc2S(=O)(=O)N2CCNCC2)c1` [Example 7-3], for which the half-inhibitory concentration (IC50) was above 10 µM. For `Cc1cc(C)cc(Oc2ccc(NC(=O)CC(C)C)cc2S(=O)(=O)N2CCNCC2)c1` [Example 7-4] the value was above 10 µM.

For the compound `Cc1cc(C)cc(Oc2ccc(NC(=O)c3ccccc3)cc2S(=O)(=O)N2CCNCC2)c1` [Example 7-5], the IC50 was above 10 µM. In the case of `Cc1ccc(C(=O)Nc2ccc(Oc3cc(C)cc(C)c3)c(S(=O)(=O)N3CCNCC3)c2)cc1` [Example 7-6] it was above 10 µM; in that of `Cc1cc(C)cc(Oc2ccc(NC(=O)c3cccc4ccccc34)cc2S(=O)(=O)N2CCNCC2)c1` [Example 7-7], above 10 µM; in that of `Cc1cc(C)cc(Oc2ccc(NC(=O)CCc3ccccc3)cc2S(=O)(=O)N2CCNCC2)c1` [Example 7-8], above 10 µM. For `Cc1cc(C)cc(Oc2ccc(NC(=O)c3cccs3)cc2S(=O)(=O)N2CCNCC2)c1` [Example 7-9] the value was above 10 µM; for `Cc1cc(C)cc(Oc2ccc(S(=O)(=O)N(C)C)cc2S(=O)(=O)N2CCNCC2)c1.Cl` [Example 10-2], 1 to 10 µM; for `N#Cc1ccc(Oc2cc(Cl)cc(Cl)c2)c(S(=O)(=O)N2CCCC3CN(Cc4ccccc4)CC32)c1` (stereo not shown) [Example 13-2], 1 to 10 µM. For `N#Cc1ccc(Oc2cc(Cl)cc(Cl)c2)c(S(=O)(=O)N2C[C@H]3C[C@@H]2CN3)c1` [Example 13-4] the value was below 1 µM; for `N#Cc1ccc(Oc2cc(Cl)cc(Cl)c2)c(S(=O)(=O)N2C[C@@H]3CCCN[C@@H]3C2)c1` [Example 13-5], 1 to 10 µM.

On to `COCCCN1CCN(S(=O)(=O)c2cc(C#N)ccc2Oc2cc(Cl)cc(Cl)c2)CC1` [Example 13-7], for which the IC50 is below 1 µM.

(Values after patent US8242118B2, “Arylsulfonamide derivatives for use as CCR3 antagonists in the treatment of inflammatory and immunological disorders” (Axikin Pharmaceuticals Inc., priority 2001, dated 2012).)
